Measured values reported in patent US7425551B2, “Malonamide derivatives” (Hoffmann-La Roche Inc., priority 2006, dated 2008).

Target: T1, γ-secretase (Homo sapiens, UniProt P49768)
T1 construct: uses a HEK293 membrane fraction as a source of γ-secretase; endogenous in cells; host or cells: HEK293 (microsomal membrane fraction, solubilised in 0.25% CHAPSO)
Test: in vitro assay of γ-secretase activity (HEK293 membrane fraction, recombinant APP substrate, Abeta ELISA)
Format: biochemical
Settings: γ-secretase inhibition; HEK293 membrane fraction solubilized in 0.25% CHAPSO, recombinant human APP C-terminal 100 amino acids substrate, Abeta detected by ELISA
Description: Description of 1γ-Secretase Assay The activity of test compounds can be evaluated in assays which measure the proteolytic cleavage of suitable substrates by γ-secretase activity. These can be cellular assays where e.g., a substrate of the γ-secretase is fused in its cytoplasmic domain to a transcription factor. Cells are transfected with this fusion gene and a reporter gene, e.g., firefly luciferase, which expression is enhanced by the transcription factor. Cleavage of the fused substrate by γ-secretase will lead to expression of the reporter gene which can be monitored in appropriate assays. The γ-secretase activity can also be determined in cell-free in vitro assays where e.g., a cell lysate containing the γ-secretase complex is incubated with a suitable APP-derived substrate which is cleaved to the Abeta peptides. The amount of produced peptides can be determined with specific ELISA assays. Cell lines of neuronal origin secrete Abeta peptides which can be measured with the specific ELISA assay. Treatment with compounds which inhibit γ-secretase leads to a reduction of secreted Abeta thus providing a measure of inhibition. The in vitro assay of γ-secretase activity uses a HEK293 membrane fraction as a source of γ-secretase and a recombinant APP substrate. Latter consist of the C-terminal 100 amino acids of human APP fused to a 6× Histidin tail for purification which is expressed in E. coli in a regulatable expression vector, e.g. pEt15. This recombinant protein corresponds to the truncated APP fragment which results after […] of the extracellular domain and which constitutes the γ-secretase substrate. The assay principle is described in Li Y M et al, PNAS 97(11), 6138-6143 (2000). Hek293 cells are mechanically disrupted and the microsomal fraction is isolated by differential centrifugation. The membranes are solubilized in detergent (0.25% CHAPSO) and incubated with the APP substrate. The Abeta peptides which are produced by γ-secretase cleavage of the substrate are detected by specific ELISA assays as described (Brockhaus M et al, Neuroreport 9(7), 1481-1486 (1998).

SMILES | IC50
C[C@](F)(C(=O)NCC(F)(F)C(F)(F)F)C(=O)N[C@@H]1C(=O)N(CCOCc2ccccc2)c2ccccc2-c2ccccc21 [Example 23, (S)—N—[(S)-5-(2-Benzyloxy-ethyl)-6-oxo-6,7-dihydro-5H-dibenzo[b,d]azepin-7-yl]-2-fluoro-2-methyl-N′-(2,2,3,3,3-pentafluoro-propyl)-malonamide] | 16 nM
COCCN1C(=O)[C@@H](NC(=O)CC(=O)NCC(F)(F)C(F)(F)F)c2ccccc2-c2ccccc21 [Example 24, N—[(S)-5-(2-Methoxy-ethyl)-6-oxo-6,7-dihydro-5H-dibenzo[b,d]azepin-7-yl]-N′-(2,2,3,3,3-pentafluoro-propyl)-malonamide] | 34 nM
O=C(CC(=O)N[C@@H]1C(=O)N(CCOCc2ccccc2)c2ccccc2-c2ccccc21)NCCC(F)(F)F [Example 28, N—[(S)-5-(2-Benzyloxy-ethyl)-6-oxo-6,7-dihydro-5H-dibenzo[b,d]azepin-7-yl]-N′-(3,3,3-trifluoro-propyl)-malonamide] | 68 nM
O=C(CC(=O)N[C@@H]1C(=O)N(CCOCc2ccccc2)c2ccccc2-c2ccccc21)NCCC(F)(F)C(F)(F)F [Example 29, N—[(S)-5-(2-Benzyloxy-ethyl)-6-oxo-6,7-dihydro-5H-dibenzo[b,d]azepin-7-yl]-N′-(3,3,4,4,4-pentafluoro-butyl)-malonamide] | 18 nM
O=C(CC(=O)N[C@@H]1C(=O)N(CCO)c2ccccc2-c2ccccc21)NCCC(F)(F)F [Example 30, N—[(S)-5-(2-Hydroxy-ethyl)-6-oxo-6,7-dihydro-5H-dibenzo[b,d]azepin-7-yl]-N′-(3,3,3-trifluoro-propyl)-malonamide] | 75 nM
O=C(CC(=O)N[C@@H]1C(=O)N(CCO)c2ccccc2-c2ccccc21)NCCC(F)(F)C(F)(F)F [Example 31, N—[(S)-5-(2-Hydroxy-ethyl)-6-oxo-6,7-dihydro-5H-dibenzo[b,d]azepin-7-yl]-N′-(3,3,4,4,4-pentafluoro-butyl)-malonamide] | 200 nM
COCCN1C(=O)[C@@H](NC(=O)[C@@](C)(F)C(=O)NCC(F)(F)C(F)(F)F)c2ccccc2-c2ccccc21 [Example 32, (S)-2-Fluoro-N—[(S)-5-(2-methoxy-ethyl)-6-oxo-6,7-dihydro-5H-dibenzo[b,d]azepin-7-yl]-2-methyl-N′-(2,2,3,3,3-pentafluoro-propyl)-malonamide] | 18 nM
C[C@H](OC(=O)NCCC(F)(F)F)C(=O)N[C@@H]1C(=O)N(CCOCc2ccccc2)c2ccccc2-c2ccccc21 [Example 35, (3,3,3-Trifluoro-propyl)-carbamic acid (S)-1-[(S)-5-(2-benzyloxy-ethyl)-6-oxo-6,7-dihydro-5H-dibenzo[b,d]azepin-7-ylcarbamoyl]-ethyl ester] | 22 nM
C[C@H](OC(=O)NCC(F)(F)F)C(=O)N[C@@H]1C(=O)N(CCOCc2ccccc2)c2ccccc2-c2ccccc21 [Example 37, (2,2,2-Trifluoro-ethyl)-carbamic acid (S)-1-[(S)-5-(2-benzyloxy-ethyl)-6-oxo-6,7-dihydro-5H-dibenzo[b,d]azepin-7-ylcarbamoyl]-ethyl ester] | 18 nM
C[C@H](OC(=O)NCCC(F)(F)F)C(=O)N[C@@H]1C(=O)N(CCO)c2ccccc2-c2ccccc21 [Example 39, (3,3,3-Trifluoro-propyl)-carbamic acid (S)-1-[(S)-5-(2-hydroxy-ethyl)-6-oxo-6,7-dihydro-5H-dibenzo[b,d]azepin-7-ylcarbamoyl]-ethyl ester] | 16 nM
C[C@H](OC(=O)NCCF)C(=O)N[C@@H]1C(=O)N(CCOCc2ccccc2)c2ccccc2-c2ccccc21 [Example 41, (2-Fluoro-ethyl)-carbamic acid (S)-1-[(S)-5-(2-benzyloxy-ethyl)-6-oxo-6,7-dihydro-5H-dibenzo[b,d]azepin-7-ylcarbamoyl]-ethyl ester] | 480 nM

Molecules with a lower IC50, results first:

IC50 | SMILES
4 nM | CCOC(C(=O)NCC(F)(F)C(F)(F)F)C(=O)N[C@@H]1C(=O)N(CCO)c2ccccc2-c2ccccc21 (stereo partly drawn) [Example 17, 2-Ethoxy-N—[(S)-5-(2-hydroxy-ethyl)-6-oxo-6,7-dihydro-5H-dibenzo[b,d]azepin-7-yl]-N′-(2,2,3,3,3-pentafluoro-propyl)-malonamide]
2 nM | C[C@@](F)(C(=O)NCC(F)(F)C(F)(F)F)C(=O)N[C@@H]1C(=O)N(CCOCc2ccccc2)c2ccccc2-c2ccccc21 [Example 22, (R)—N—[(S)-5-(2-Benzyloxy-ethyl)-6-oxo-6,7-dihydro-5H-dibenzo[b,d]azepin-7-yl]-2-fluoro-2-methyl-N′-(2,2,3,3,3-pentafluoro-propyl)-malonamide]
6 nM | COCCN1C(=O)[C@@H](NC(=O)[C@H](C)OC(=O)NCC(F)(F)C(F)(F)F)c2ccccc2-c2ccccc21 [Example 25, (2,2,3,3,3-Pentafluoro-propyl)-carbamic acid (S)-1-[(S)-5-(2-methoxy-ethyl)-6-oxo-6,7-dihydro-5H-dibenzo[b,d]azepin-7-ylcarbamoyl]-ethyl ester]
1 nM | C[C@@](F)(C(=O)NCC(F)(F)C(F)(F)F)C(=O)N[C@@H]1C(=O)N(CCO)c2ccccc2-c2ccccc21 [Example 26, (R)-2-Fluoro-N—[(S)-5-(2-hydroxy-ethyl)-6-oxo-6,7-dihydro-5H-dibenzo[b,d]azepin-7-yl]-2-methyl-N′-(2,2,3,3,3-pentafluoro-propyl)-malonamide]
4 nM | C[C@](F)(C(=O)NCC(F)(F)C(F)(F)F)C(=O)N[C@@H]1C(=O)N(CCO)c2ccccc2-c2ccccc21 [Example 27, (S)-2-Fluoro-N—[(S)-5-(2-hydroxy-ethyl)-6-oxo-6,7-dihydro-5H-dibenzo[b,d]azepin-7-yl]-2-methyl-N′-(2,2,3,3,3-pentafluoro-propyl)-malonamide]
4 nM | COCCN1C(=O)[C@@H](NC(=O)[C@](C)(F)C(=O)NCC(F)(F)C(F)(F)F)c2ccccc2-c2ccccc21 [Example 33, (R)-2-Fluoro-N—[(S)-5-(2-methoxy-ethyl)-6-oxo-6,7-dihydro-5H-dibenzo[b,d]azepin-7-yl]-2-methyl-N′-(2,2,3,3,3-pentafluoro-propyl)-malonamide]
4 nM | COCCN1C(=O)[C@@H](NC(=O)C(C)(O)C(=O)NCC(F)(F)C(F)(F)F)c2ccccc2-c2ccccc21 (stereo partly drawn) [Example 34, 2-Hydroxy-N—[(S)-5-(2-methoxy-ethyl)-6-oxo-6,7-dihydro-5H-dibenzo[b,d]azepin-7-yl]-2-methyl-N′-(2,2,3,3,3-pentafluoro-propyl)-malonamide]
13 nM | C[C@H](OC(=O)NCCC(F)(F)C(F)(F)F)C(=O)N[C@@H]1C(=O)N(CCOCc2ccccc2)c2ccccc2-c2ccccc21 [Example 36, (3,3,4,4,4-Pentafluoro-butyl)-carbamic acid (S)-1-[(S)-5-(2-benzyloxy-ethyl)-6-oxo-6,7-dihydro-5H-dibenzo[b,d]azepin-7-ylcarbamoyl]-ethyl ester]
5 nM | C[C@@](F)(C(=O)NCCC(F)(F)C(F)(F)F)C(=O)N[C@@H]1C(=O)N(CCOCc2ccccc2)c2ccccc2-c2ccccc21 [Example 40, (R)—N—[(S)-5-(2-Benzyloxy-ethyl)-6-oxo-6,7-dihydro-5H-dibenzo[b,d]azepin-7-yl]-2-fluoro-2-methyl-N′-(3,3,4,4,4-pentafluoro-butyl)-malonamide]
